Reference: ChEMBL document CHEMBL3046442, “Synthesis and Acaricidal Activity of Bicyclic Pyrazole-3-carboxamide Derivatives” (1992)
In brackets after ≈: the same amount, converted by molar mass.

Assays:
Assay type in all cases: functional
Tetranychus urticae [1] = assay: Acaricidal activity against Tetranychus urticae (two-spotted spider mite) infested kidney bean leaf assessed as mortality at 50 ppm after 5 days; conditions: 120 h
Tetranychus urticae [2] = assay: Acaricidal activity against Tetranychus urticae (two-spotted spider mite) infested kidney bean leaf assessed as mortality at 200 ppm after 5 days; conditions: 120 h
Tetranychus urticae [3] = assay: Acaricidal activity against Tetranychus urticae (two-spotted spider mite) infested kidney bean leaf assessed as mortality at 12.5 ppm after 5 days; conditions: 120 h
Tetranychus urticae [4] = assay: Acaricidal activity against Tetranychus urticae (two-spotted spider mite) infested kidney bean leaf assessed as mortality at 3.1 ppm after 5 days; conditions: 120 h
Panonychus citri [5] = assay: Ovicidal activity against Panonychus citri eggs laid on compound-treated mandarian orange measured after 7 days; conditions: 168 h
Tetranychus urticae [6] = assay: Adulticidal activity against adult Tetranychus urticae (two-spotted spider mite) infested kidney bean leaf disk after 2 days; conditions: foliar, 48 h
Panonychus citri [7] = assay: Adulticidal activity against adult Panonychus citri infested mandarian orange after 2 days; conditions: 48 h
Tetranychus urticae [8] = assay: Ovicidal activity against Tetranychus urticae (two-spotted spider mite) eggs laid on compound-treated kidney bean leaf disk measured after 7 days; conditions: foliar, 168 h

## CC(C)n1nc2c(c1C(=O)NCc1ccc(C(C)(C)C)cc1)CCC2
Tetranychus urticae [1]
  mortality at 50 ppm: 0%
Tetranychus urticae [2]
  mortality at 200 ppm: 0%

## Cn1nc2c(c1C(=O)NCc1ccc([Si](C)(C)C)cc1)CCC2
Tetranychus urticae [3]
  mortality at 12.5 ppm: 3%
Tetranychus urticae [4]
  mortality at 3.1 ppm: 1%
Tetranychus urticae [1]
  mortality at 50 ppm: 3%
Tetranychus urticae [2]
  mortality at 200 ppm: 3%

## Cn1nc2c(c1C(=O)NCCc1ccc(C(C)(C)C)cc1)CCC2
Tetranychus urticae [1]
  mortality at 50 ppm: 0%
Tetranychus urticae [2]
  mortality at 200 ppm: 0%

## CCc1nn(C)c(C(=O)NCc2ccc(C(C)(C)C)cc2)c1Cl [TEBUFENPYRAD]
Panonychus citri [5]
  LC50: 3.9 µg/mL (≈ 11.7 µM)
Tetranychus urticae [6]
  LC50: 3.7 µg/mL (≈ 11.1 µM)
Panonychus citri [7]
  LC50: 0.5 µg/mL (≈ 1.5 µM)
Tetranychus urticae [8]
  LC50: 0.96 µg/mL (≈ 2.88 µM)

## CC1CCc2c1nn(C)c2C(=O)NCc1ccc(C(C)(C)C)cc1 (stereo unspecified)
Panonychus citri [5]
  LC50: 6.3 µg/mL (≈ 19.4 µM)
Tetranychus urticae [6]
  LC50: 2.1 µg/mL (≈ 6.45 µM)
Tetranychus urticae [3]
  mortality at 12.5 ppm: 3%
Tetranychus urticae [4]
  mortality at 3.1 ppm: 3%
Tetranychus urticae [1]
  mortality at 50 ppm: 3%
Panonychus citri [7]
  LC50: 0.42 µg/mL (≈ 1.29 µM)
Tetranychus urticae [2]
  mortality at 200 ppm: 3%
Tetranychus urticae [8]
  LC50: 1.7 µg/mL (≈ 5.22 µM)

## CC1CCCc2c1nn(C)c2C(=O)NCc1ccc(C(C)(C)C)cc1 (stereo unspecified)
Tetranychus urticae [3]
  mortality at 12.5 ppm: 0%
Tetranychus urticae [4]
  mortality at 3.1 ppm: 0%
Tetranychus urticae [1]
  mortality at 50 ppm: 0%
Tetranychus urticae [2]
  mortality at 200 ppm: 0%

## CC(C)(C)c1ccc(CNC(=O)c2[nH]nc3c2CCC3)cc1
Tetranychus urticae [1]
  mortality at 50 ppm: 0%
Tetranychus urticae [2]
  mortality at 200 ppm: 0%

## CCn1nc2c(c1C(=O)NCc1ccc(C(C)(C)C)cc1)CCC2
Tetranychus urticae [1]
  mortality at 50 ppm: 0%
Tetranychus urticae [2]
  mortality at 200 ppm: 0%

## CC1CC(C)c2c1nn(C)c2C(=O)NCc1ccc(C(C)(C)C)cc1 (stereo unspecified)
Tetranychus urticae [3]
  mortality at 12.5 ppm: 0%
Tetranychus urticae [4]
  mortality at 3.1 ppm: 0%
Tetranychus urticae [1]
  mortality at 50 ppm: 0%
Tetranychus urticae [2]
  mortality at 200 ppm: 1%

## Cn1nc2c(c1C(=S)NCc1ccc(C(C)(C)C)cc1)CCC2
Tetranychus urticae [1]
  mortality at 50 ppm: 0%
Tetranychus urticae [2]
  mortality at 200 ppm: 0%

## CC(C)Cc1ccc(CNC(=O)c2c3c(nn2C)CCC3)cc1
Tetranychus urticae [3]
  mortality at 12.5 ppm: 0%
Tetranychus urticae [4]
  mortality at 3.1 ppm: 0%
Tetranychus urticae [1]
  mortality at 50 ppm: 0%
Tetranychus urticae [2]
  mortality at 200 ppm: 1%

## Cn1nc2c(c1C(=O)SCc1ccc(C(C)(C)C)cc1)CCC2
Tetranychus urticae [1]
  mortality at 50 ppm: 0%
Tetranychus urticae [2]
  mortality at 200 ppm: 0%

## Cn1nc2c(c1C(=O)NCc1ccccc1)CCC2
Tetranychus urticae [3]
  mortality at 12.5 ppm: 0%
Tetranychus urticae [4]
  mortality at 3.1 ppm: 0%
Tetranychus urticae [1]
  mortality at 50 ppm: 0%
Tetranychus urticae [2]
  mortality at 200 ppm: 0%

## CC(C)(C)c1ccc(CNC(=O)c2c3c(nn2C(C)(C)C)CCC3)cc1
Tetranychus urticae [1]
  mortality at 50 ppm: 0%
Tetranychus urticae [2]
  mortality at 200 ppm: 0%

## CCCCn1nc2c(c1C(=O)NCc1ccc(C(C)(C)C)cc1)CCC2
Tetranychus urticae [1]
  mortality at 50 ppm: 0%
Tetranychus urticae [2]
  mortality at 200 ppm: 0%

## Cn1nc2c(c1C(=O)OCc1ccc(C(C)(C)C)cc1)CCC2
Tetranychus urticae [1]
  mortality at 50 ppm: 0%
Tetranychus urticae [2]
  mortality at 200 ppm: 1%

## Cn1nc2c(c1C(=O)NCc1ccc(C(C)(C)C)cc1)CCC2
Tetranychus urticae [3]
  mortality at 12.5 ppm: 3%
Tetranychus urticae [4]
  mortality at 3.1 ppm: 2%
Tetranychus urticae [1]
  mortality at 50 ppm: 3%
Tetranychus urticae [2]
  mortality at 200 ppm: 3%

## CCC1CCc2c1nn(C)c2C(=O)NCc1ccc(C(C)(C)C)cc1 (stereo unspecified)
Tetranychus urticae [3]
  mortality at 12.5 ppm: 0%
Tetranychus urticae [4]
  mortality at 3.1 ppm: 0%
Tetranychus urticae [1]
  mortality at 50 ppm: 0%
Tetranychus urticae [2]
  mortality at 200 ppm: 0%

## CC(C)(C)c1ccc(CNC(=O)c2c3c(nn2-c2ccccc2)CCC3)cc1
Tetranychus urticae [1]
  mortality at 50 ppm: 0%
Tetranychus urticae [2]
  mortality at 200 ppm: 0%

## Cn1nc2c(c1C(=O)NCc1ccc(C(C)(C)C)cc1)CCCC2
Tetranychus urticae [3]
  mortality at 12.5 ppm: 0%
Tetranychus urticae [4]
  mortality at 3.1 ppm: 0%
Tetranychus urticae [1]
  mortality at 50 ppm: 1%
Tetranychus urticae [2]
  mortality at 200 ppm: 2%

## Cn1nc2c(c1C(=O)NCc1ccc(CC(C)(C)C)cc1)CCC2
Tetranychus urticae [3]
  mortality at 12.5 ppm: 0%
Tetranychus urticae [4]
  mortality at 3.1 ppm: 0%
Tetranychus urticae [1]
  mortality at 50 ppm: 1%
Tetranychus urticae [2]
  mortality at 200 ppm: 3%

## CN(Cc1ccc(C(C)(C)C)cc1)C(=O)c1c2c(nn1C)CCC2
Tetranychus urticae [1]
  mortality at 50 ppm: 0%
Tetranychus urticae [2]
  mortality at 200 ppm: 0%

## CCC(C)c1ccc(CNC(=O)c2c3c(nn2C)CCC3)cc1 (stereo unspecified)
Tetranychus urticae [3]
  mortality at 12.5 ppm: 1%
Tetranychus urticae [4]
  mortality at 3.1 ppm: 0%
Tetranychus urticae [1]
  mortality at 50 ppm: 3%
Tetranychus urticae [2]
  mortality at 200 ppm: 3%

## CC(C)c1ccc(CNC(=O)c2c3c(nn2C)CCC3)cc1
Tetranychus urticae [3]
  mortality at 12.5 ppm: 1%
Tetranychus urticae [4]
  mortality at 3.1 ppm: 0%
Tetranychus urticae [1]
  mortality at 50 ppm: 2%
Tetranychus urticae [2]
  mortality at 200 ppm: 3%

## Cc1ccc(CNC(=O)c2c3c(nn2C)CCC3)cc1
Tetranychus urticae [3]
  mortality at 12.5 ppm: 0%
Tetranychus urticae [4]
  mortality at 3.1 ppm: 0%
Tetranychus urticae [1]
  mortality at 50 ppm: 0%
Tetranychus urticae [2]
  mortality at 200 ppm: 0%

## CCCCc1ccc(CNC(=O)c2c3c(nn2C)CCC3)cc1
Tetranychus urticae [3]
  mortality at 12.5 ppm: 0%
Tetranychus urticae [4]
  mortality at 3.1 ppm: 0%
Tetranychus urticae [1]
  mortality at 50 ppm: 0%
Tetranychus urticae [2]
  mortality at 200 ppm: 2%
